pEC50: −log10 of the molar value.
System: PC-3 cells
Assay: PC-3 Oxygen Rate Consumption (OCR) Assay
Assay type: cell-based
Settings: Homo sapiens, 0.05 h, medium with 2% FBS, OCR at 3-min post-injection normalized to % increase over DMSO-treated cells, concentration for half-maximal OCR increase, read-out: EC50-PC3-OCR-FBS-3min
Summary of the method: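 PC-3 cells seeded a day before, equilibrated 1 h in XF medium with 10 mM glucose, 1 mM pyruvate, 2% FBS, non-CO2 at 37 °C. Compound injected after basal OCR reads; OCR at 3 min post-injection normalized as % increase over DMSO, EC50 = half-maximal increase; six replicates.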

SMILES	pEC50
CC(C)(C)S(=O)(=O)c1ccc(S(=O)(=O)Nc2cc(F)ccc2C(=O)NC23CC(C(F)(F)F)(C2)C3)cc1 [Example 152, 2-((4-(tert-butylsulfonyl)phenyl)sulfonamido)-4-fluoro-N-(3-(trifluoromethyl)bicyclo[1.1.1]pentan-1-yl)benzamide]	5.95
CC(C)(C)S(=O)(=O)c1ccc(S(=O)(=O)Nc2cc(F)ccc2C(=O)NC23CC(C#N)(C2)C3)cc1 [Example 153, 2-((4-(tert-butylsulfonyl)phenyl)sulfonamido)-N-(3-cyanobicyclo[1.1.1]pentan-1-yl)-4-fluorobenzamide]	4.97
CS(=O)(=O)c1ccc(S(=O)(=O)Nc2cc(S(F)(F)(F)(F)F)ccc2C(=O)NC23CC(C(F)(F)F)(C2)C3)cc1 [Example 154, 2-((4-(methylsulfonyl)phenyl)sulfonamido)-4-(pentafluoro-λ^6-sulfanyl)-N-(3-(trifluoromethyl)bicyclo[1.1.1]pentan-1-yl)benzamide]	5.10
CS(=O)(=O)c1ccc(S(=O)(=O)Nc2cc(S(F)(F)(F)(F)F)ccc2C(=O)NC23CC(C2)C3)cc1 [Example 155, N-(bicyclo[1.1.1]pentan-1-yl)-2-((4-(methylsulfonyl)phenyl)sulfonamido)-4-(pentafluoro-λ^6-sulfanyl)benzamide]	5.23
CC(C)(C)S(=O)(=O)Nc1ccc(C(F)(F)F)cc1C(=O)NC12CCC(C(=O)O)(CC1)CC2 [Example 156, 4-(2-((1,1-dimethylethyl)sulfonamido)-5-(trifluoromethyl)benzamido)bicyclo[2.2.2]octane-1-carboxylic Acid]	≤ 3.70
CC(C)(C)S(=O)(=O)Nc1ccc(C(F)(F)F)cc1C(=O)NC12CC(C(F)(F)F)(C1)C2 [Example 157, 2-((1,1-dimethylethyl)sulfonamido)-5-(trifluoromethyl)-N-(3-(trifluoromethyl)bicyclo[1.1.1]pentan-1-yl)benzamide]	6.45
N#Cc1ccc(S(=O)(=O)Nc2cc(C(F)(F)F)ccc2C(=O)NC23CC(C(F)(F)F)(C2)C3)cc1 [Example 158, 2-((4-cyanophenyl)sulfonamido)-4-(trifluoromethyl)-N-(3-(trifluoromethyl)bicyclo[1.1.1]pentan-1-yl)benzamide]	5.85
O=C(NC12CC(C(F)(F)F)(C1)C2)c1ccc(C(F)(F)F)cc1NS(=O)(=O)c1ccc(-c2nnn[nH]2)cc1 [Example 159, 2-((4-(1H-tetrazol-5-yl)phenyl)sulfonamido)-4-(trifluoromethyl)-N-(3-(trifluoromethyl)bicyclo[1.1.1]pentan-1-yl)benzamide]	≤ 3.70
N#Cc1ccc(S(=O)(=O)Nc2cc(C(F)(F)F)ccc2C(=O)NC23CC(c4ccccc4)(C2)C3)cc1 [Example 160, 2-((4-cyanophenyl)sulfonamido)-N-(3-phenylbicyclo[1.1.1]pentan-1-yl)-4-(trifluoromethyl)benzamide]	6.20
CC(C)(C)S(=O)(=O)Nc1cc(S(F)(F)(F)(F)F)ccc1C(=O)NC12CCC(C#N)(CC1)CC2 [Example 161, N-(4-cyanobicyclo[2.2.2]octan-1-yl)-2-((1,1-dimethylethyl)sulfonamido)-4-(pentafluoro-λ^6-sulfanyl)benzamide]	5.96
O=C(NC12CC(C(F)(F)F)(C1)C2)c1cc(C(F)(F)F)ccc1NS(=O)(=O)C1CCS(=O)(=O)CC1 [Example 162, 2-((1,1-dioxidotetrahydro-2H-thiopyran)-4-sulfonamido)-5-(trifluoromethyl)-N-(3-(trifluoromethyl)bicyclo[1.1.1]pentan-1-yl)benzamide]	4.47
CN(C)S(=O)(=O)Nc1cc(C(F)(F)F)ccc1C(=O)NC12CCC(C#N)(CC1)CC2 [Example 163, N-(4-cyanobicyclo[2.2.2]octan-1-yl)-2-((N,N-dimethylsulfamoyl)amino)-4-(trifluoromethyl)benzamide]	5.42
CC(C)(C)S(=O)(=O)Nc1ccc(C(F)(F)F)cc1C(=O)NC12CC(C#N)(C1)C2 [Example 164, N-(3-cyanobicyclo[1.1.1]pentan-1-yl)-2-((1,1-dimethylethyl)sulfonamido)-5-(trifluoromethyl)benzamide]	5.76
CS(=O)(=O)Nc1ccc(C(F)(F)F)cc1C(=O)NC12CC(C#N)(C1)C2 [Example 165, N-(3-cyanobicyclo[1.1.1]pentan-1-yl)-2-(methylsulfonamido)-5(trifluoromethyl)benzamide]	4.68
CS(=O)(=O)Nc1ccc(C(F)(F)F)cc1C(=O)NC12CC(C(F)(F)F)(C1)C2 [Example 166, 2-(methylsulfonamido)-5-(trifluoromethyl)-N-(3-(trifluoromethyl)bicyclo[1.1.1]pentan-1-yl)benzamide]	5.97
CS(=O)(=O)Nc1ccc(S(F)(F)(F)(F)F)cc1C(=O)NC12CCC(C#N)(CC1)CC2 [Example 167, N-(4-cyanobicyclo[2.2.2]octan-1-yl)-2-(methylsulfonamido)-5-(pentafluoro-λ^6-sulfanyl)benzamide]	5.23
CS(=O)(=O)Nc1cc(C(F)(F)F)ccc1C(=O)NC12CCC(C#N)(CC1)CC2 [Example 168, N-(4-cyanobicyclo[2.2.2]octan-1-yl)-2-(methylsulfonamido)-4-(trifluoromethyl)benzamide]	4.82

SMILES	pEC50
COC12CC(NC(=O)c3cc(C(F)(F)F)ccc3NS(=O)(=O)C(C)(C)C)(C1)C2 [Example 169, 2-((1,1-dimethylethyl)sulfonamido)-N-(3-methoxybicyclo[1.1.1]pentan-1-yl)-5-(trifluoromethyl)benzamide]	4.94
COC12CC(NC(=O)c3cc(C(F)(F)F)ccc3NS(C)(=O)=O)(C1)C2 [Example 170, N-(3-methoxybicyclo[1.1.1]pentan-1-yl)-2-(methylsulfonamido)-5-(trifluoromethyl)benzamide]	4.35
CC(C)(C)S(=O)(=O)Nc1ccc(C(F)(F)F)cc1C(=O)NC12CCC(O)(CC1)CC2 [Example 171, 2-((1,1-dimethylethyl)sulfonamido)-N-(4-hydroxybicyclo[2.2.2]octan-1-yl)-5-(trifluoromethyl)benzamide]	3.95
CC(C)(C)S(=O)(=O)Nc1ccc(C(F)(F)F)cc1C(=O)NC12CCC(C#N)(CC1)C2 [Example 172, N-(4-cyanobicyclo[2.2.1]heptan-1-yl)-2-((1,1-dimethylethyl)sulfonamido)-5-(trifluoromethyl)benzamide]	5.78
CS(=O)(=O)Nc1ccc(C(F)(F)F)cc1C(=O)NC12CCC(C#N)(CC1)C2 [Example 173, N-(4-cyanobicyclo[2.2.1]heptan-1-yl)-2-(methylsulfonamido)-5-(trifluoromethyl)benzamide]	4.58
CN(C)S(=O)(=O)Nc1ccc(C(F)(F)F)cc1C(=O)NC1CC2CCC(C1)N2S(C)(=O)=O (stereo not shown) [Example 174, 2-((N,N-dimethylsulfamoyl)amino)-N-(8-(methylsulfonyl)-8-azabicyclo[3.2.1]octan-3-yl)-5-(trifluoromethyl)benzamide]	3.97
CS(=O)(=O)Nc1ccc(C(F)(F)F)cc1C(=O)NC12CC3CC(CC(C#N)(C3)C1)C2 [Example 175, N-((1R,5R)-3-cyanoadamantan-1-yl)-2-(methylsulfonamido)-5-(trifluoromethyl)benzamide]	5.22
CC(C)(C)S(=O)(=O)Nc1ccc(C(F)(F)F)cc1C(=O)NC12CC3CC(CC(C#N)(C3)C1)C2 [Example 176, N-((1R,5R)-3-cyanoadamantan-1-yl)-2-((1,1-dimethylethyl)sulfonamido)-5-(trifluoromethyl)benzamide]	5.77
CN(C)S(=O)(=O)Nc1ccc(C(F)(F)F)cc1C(=O)NC12CC3CC(CC(C#N)(C3)C1)C2 [Example 177, N-((1R,5R)-3-cyanoadamantan-1-yl)-2-((N,N-dimethylsulfamoyl)amino)-5-(trifluoromethyl)benzamide]	5.73
N#CC12CCC(NC(=O)c3cc(C(F)(F)F)ccc3NS(=O)(=O)N3CCOCC3)(CC1)CC2 [Example 178, N-(4-cyanobicyclo[2.2.2]octan-1-yl)-2-(morpholine-4-sulfonamido)-5-(trifluoromethyl)benzamide]	5.23
N#CC12CCC(NC(=O)c3cc(C(F)(F)F)ccc3NS(=O)(=O)N3CCC3)(CC1)CC2 [Example 179, 2-(azetidine-1-sulfonamido)-N-(4-cyanobicyclo[2.2.2]octan-1-yl)-5-(trifluoromethyl)benzamide]	5.05
CP(C)(=O)c1ccc(S(=O)(=O)Nc2cc(C(F)(F)F)ccc2C(=O)NC23CC4CC(CC(C#N)(C4)C2)C3)cc1 [Example 180]	≤ 3.70
CCP(=O)(CC)c1ccc(S(=O)(=O)Nc2cc(C(F)(F)F)ccc2C(=O)NC23CC4CC(CC(C#N)(C4)C2)C3)cc1 [Example 181]	3.94
COC1CN(S(=O)(=O)Nc2ccc(C(F)(F)F)cc2C(=O)NC23CCC(C#N)(CC2)CC3)C1 [Example 182, N-(4-cyanobicyclo[2.2.2]octan-1-yl)-2-((3-methoxyazetidine)-1-sulfonamido)-5-(trifluoromethyl)benzamide]	4.89
CS(=O)(=O)Nc1ccc(C(F)(F)F)cc1C(=O)NC12CCC(C(F)(F)F)(CC1)CC2 [Example 183, 2-(methylsulfonamido)-5-(trifluoromethyl)-N-(4-(trifluoromethyl)bicyclo[2.2.2]octan-1-yl)benzamide]	6.08
CS(=O)(=O)Nc1ccc(S(F)(F)(F)(F)F)cc1C(=O)NC1CC2CCC(C1)O2 (stereo not shown) [Example 184, N-(8-oxabicyclo[3.2.1]octan-3-yl)-2-(methylsulfonamido)-5-(pentafluoro-λ^6-sulfanyl)benzamide]	4.32
CS(=O)(=O)Nc1ccc(OC(F)(F)F)cc1C(=O)NC12CCC(C#N)(CC1)CC2 [Example 185, N-(4-cyanobicyclo[2.2.2]octan-1-yl)-2-(methylsulfonamido)-5-(trifluoromethoxy)benzamide]	4.50

Source: patent US12049439B2 (OrsoBio, Inc., priority 2018, dated 2024)
